In one data set the test system is KP4. In words: Cell viability assay (CellTiter Glo), pancreatic ductal adenocarcinoma KP4. The data set is classed as cell-based, human. As to conditions: Homo sapiens, KP-4, 96 h, pancreatic cancer cell line KP4, 96 hours, CellTiter Glo; read-out: IC50 μM KP4. As to the method:
(§1) Cell viability assay was performed to assess the potency of the compounds in human cancer cell lines KP4 (pancreatic ductal adenocarcinoma), MiaPaCa-2 (pancreatic carcinoma), AsPC-1 (pancreatic adenocarcinoma, ascites), 143B (osteosarcoma), and SJSA-1 (osteosarcoma). Selected compounds were also assayed in a human breast epithelial cell line MCF-10A, a nontumorigenic cell line as a control to assess differential activity. Cells at a density of 500-5,000 cells/well were seeded in 96-well plates and incubated at 37° C. overnight. A series of 9 different concentrations of compound stocks (500×) were created by 3-fold serial dilution in DMSO. These compounds were further diluted in culture media and then added to cells so that the final DMSO concentration was equal to 0.25% or less. After 96 hours of incubation, 50 μL of CellTiter Glo reagent (Promega) was added to each well and luminescence was measured after 10 minutes using EnVision (PerkinElmer). Compounds titrated from top concentration of up to 30 μM. The select compounds were tested initially from 30 μM as the top concentration in duplicates (range of 4.6 nM-30 μM). […] Luminescence from cells treated with DMSO alone was set as Max and % of inhibition was calculated as follows: Inhibition %=(Max-Sample value)/Max*100. Data was analyzed using XL-fit software (ID Business Solutions Ltd.). IC50, relative IC50, or % of top inhibition was calculated.
as §1, with “in” for “in human”, “line” for “lines”, “adenocarcinoma).” for “adenocarcinoma), MiaPaCa-2 (pancreatic carcinoma), AsPC-1 (pancreatic adenocarcinoma, ascites), 143B (osteosarcoma), and SJSA-1 (osteosarcoma). Selected compounds were also assayed in a human breast epithelial cell line MCF-10A, a nontumorigenic cell line as a control to assess differential activity.”, “1,000-10,000” for “500-5,000”, “All” for “Compounds titrated from top concentration of up to 30 μM. The select”
(§2) The results of the assay on stability in blood and IC50 values for pancreatic cancer cell line KP4 are given below in Table 24.

Data set [1] can be described thus: Whole blood stability, mouse. The data set is classed as in vitro ADME.
Excerpt: as §2

The nature of data set [2]: Whole blood stability, human. In kind it is in vitro ADME.
Excerpt: as §2

A value given as a limit tells only on which side of the number the result lay.

Here are results for 15 compounds from US11098040B2, “Compounds and methods of use” (Ferro Therapeutics, Inc., priority 2018, dated 2021).

Broadly, the IC50 is the concentration needed to halve the response being measured.

Take `COC(=O)[C@H]1Cc2c([nH]c3ccccc23)[C@H](c2ccc(NCC3CC3)cc2)N1C(=O)CCl` [Compound 83]: in the data set with KP4, the IC50 was less than 0.01 µM. The “Whole Blood Stability % Remaining at 37° C. Mouse” value in data set [1] (0 min) was 100.0%; in data set [1] (30 min), 66.1%; in data set [1] (60 min), 30.0%. Further, the “Whole Blood Stability % Remaining at 37° C. Human” value is listed as 100.0% in data set [2] (0 min), 78.5% in data set [2] (30 min) and 52.9% in data set [2] (60 min).
Turning to `C=CCOC(=O)c1ccc([C@H]2c3[nH]c4ccccc4c3C[C@H](C(=O)OC)N2C(=O)CCl)cc1` [Compound 74], the IC50 in the data set with KP4 is less than 0.01 µM. For the same compound, the “Whole Blood Stability % Remaining at 37° C. Mouse” value in data set [1] (0 min) worked out at 100.0%; in data set [1] (30 min), 0.0%; in data set [1] (60 min), 0.0%. The entries for the “Whole Blood Stability % Remaining at 37° C. Human” value in data set [2] (0 min), in data set [2] (30 min) and in data set [2] (60 min) were 100.0%, 58.2% and 29.0%, respectively.
`C[C@H]1Cc2c([nH]c3ccccc23)[C@H](c2ccc(C3CCCC3)cc2)N1C(=O)CCl` [Compound 109]: in the data set with KP4, the 50% inhibitory concentration (IC50) is less than 0.01 µM. Besides, the results for the “Whole Blood Stability % Remaining at 37° C. Mouse” value in data set [1] (0 min), in data set [1] (30 min) and in data set [1] (60 min) were 100.0%, 79.2% and 87.7%, respectively. The figures for the “Whole Blood Stability % Remaining at 37° C. Human” value in data set [2] (0 min), in data set [2] (30 min) and in data set [2] (60 min) were 100.0%, 96.1% and 68.1%, respectively.
Consider `COC(=O)[C@H]1Cc2c([nH]c3ccccc23)[C@@H](c2ccc(S(=O)(=O)N(C)C)cc2)N1C(=O)CCl` [Compound 23a], for which the half-maximal inhibitory concentration (IC50) in the data set with KP4 is more than 1 µM. For the same compound, the “Whole Blood Stability % Remaining at 37° C. Mouse” value amounted to 100.0% in data set [1] (0 min), 83.8% in data set [1] (30 min) and 78.6% in data set [1] (60 min). The results for the “Whole Blood Stability % Remaining at 37° C. Human” value in data set [2] (0 min), in data set [2] (30 min) and in data set [2] (60 min) were 100.0%, 83.2% and 72.7%, respectively.
For the compound `COC(=O)[C@H]1Cc2c([nH]c3ccccc23)[C@H](c2ccc(C(=O)N3CCNCC3)cc2)N1C(=O)CCl` [Compound 31], in the data set with KP4, the 50% inhibitory concentration (IC50) is 0.1 to 0.5 µM. For the same compound, the “Whole Blood Stability % Remaining at 37° C. Mouse” value is listed as 100.0% in data set [1] (0 min), 90.0% in data set [1] (30 min) and 75.5% in data set [1] (60 min). Further, the “Whole Blood Stability % Remaining at 37° C. Human” value in data set [2] (0 min) is on record as 100.0%; in data set [2] (30 min), 49.4%; in data set [2] (60 min) it was 32.6%.
On to `COC(=O)[C@H]1Cc2c([nH]c3ccccc23)[C@H](c2ccc(S(=O)(=O)N(C)C)cc2)N1C(=O)CCl` [Compound 23], for which, in the data set with KP4, the IC50 is less than 0.01 µM. Moreover, the “Whole Blood Stability % Remaining at 37° C. Mouse” value in data set [1] (0 min) was 100.0%; in data set [1] (30 min) it was 55.5%; in data set [1] (60 min), 34.4%. The “Whole Blood Stability % Remaining at 37° C. Human” value in data set [2] (0 min) was determined as 100.0%; in data set [2] (30 min), 48.9%; in data set [2] (60 min) it was 30.8%.
For the compound `COC(=O)[C@H]1Cc2c([nH]c3ccccc23)[C@H](c2ccc(S(=O)(=O)N[C@]34C[C@H]5C[C@H](C[C@H](C5)C3)C4)cc2)N1C(=O)/C=C/CCl` [Compound 30], the IC50 in the data set on KP4 lay in the range of 0.5 to 1 µM. Besides, the figures for the “Whole Blood Stability % Remaining at 37° C. Mouse” value in data set [1] (0 min), in data set [1] (30 min) and in data set [1] (60 min) were 100.0%, 85.3% and 75.9%, respectively. Also, the “Whole Blood Stability % Remaining at 37° C. Human” value in data set [2] (0 min) is on record as 100.0%; in data set [2] (30 min), 62.1%; in data set [2] (60 min), 38.1%.
For the compound `CN(C)C(=O)[C@H]1Cc2c([nH]c3ccccc23)[C@H](c2ccc(S(=O)(=O)N3CCC(O)CC3)cc2)N1C(=O)CCl` [Compound 49], in the data set on KP4, the IC50 was more than 1 µM. Moreover, the “Whole Blood Stability % Remaining at 37° C. Mouse” value in data set [1] (0 min) came out at 100.0%; in data set [1] (30 min), 82.5%; in data set [1] (60 min), 52.5%. Besides, the figures for the “Whole Blood Stability % Remaining at 37° C. Human” value in data set [2] (0 min), in data set [2] (30 min) and in data set [2] (60 min) were 100.0%, 43.0% and 13.7%, respectively.
As for `COC(=O)[C@H]1Cc2c([nH]c3ccc(Br)cc23)[C@H](c2ccc(C(=O)OCC3CC3)cc2)N1C(=O)CCl` [Compound 87], the IC50 with KP4 was less than 0.01 µM. Moreover, the “Whole Blood Stability % Remaining at 37° C. Mouse” value turned out to be 100.0% in data set [1] (0 min), 0.0% in data set [1] (30 min) and 0.0% in data set [1] (60 min). For the same compound, the “Whole Blood Stability % Remaining at 37° C. Human” value in data set [2] (0 min) was determined as 100.0%; in data set [2] (30 min) it was 63.2%; in data set [2] (60 min), 32.2%.
Consider `COC(=O)[C@H]1Cc2c([nH]c3ccccc23)[C@H](c2ccc(C(=O)N3CCC(O)CC3)cc2)N1C(=O)CCl` [Compound 32], for which the half-inhibitory concentration (IC50) with KP4 was more than 1 µM. The “Whole Blood Stability % Remaining at 37° C. Mouse” value in data set [1] (0 min) stood at 100.0%; in data set [1] (30 min) it was 0.0%; in data set [1] (60 min) it was 0.0%. For the same compound, the figures for the “Whole Blood Stability % Remaining at 37° C. Human” value in data set [2] (0 min), in data set [2] (30 min) and in data set [2] (60 min) were 100.0%, 0.1% and 0.1%, respectively.
On to `COC(=O)[C@H]1Cc2c([nH]c3ccccc23)[C@H](c2ccc(C(=O)OC[C@]34C[C@H]5C[C@H](C[C@H](C5)C3)C4)cc2)N1C(=O)CCl` [Compound 6], for which, in the data set on KP4, the half-maximal inhibitory concentration (IC50) fell in the range of 0.01 to 0.1 µM. Also, the “Whole Blood Stability % Remaining at 37° C. Mouse” value is 100.0% in data set [1] (0 min), 12.4% in data set [1] (30 min) and 4.7% in data set [1] (60 min). Besides, the results for the “Whole Blood Stability % Remaining at 37° C. Human” value in data set [2] (0 min), in data set [2] (30 min) and in data set [2] (60 min) were 100.0%, 54.8% and 33.0%, respectively.
As to `COC(=O)[C@H]1Cc2c([nH]c3ccccc23)[C@H](c2ccc(C(=O)OCC3CCCC3)cc2)N1C(=O)CCl` [Compound 86], the half-inhibitory concentration (IC50) in the data set with KP4 was less than 0.01 µM. Also, the results for the “Whole Blood Stability % Remaining at 37° C. Mouse” value in data set [1] (0 min), in data set [1] (30 min) and in data set [1] (60 min) were 100.0%, 0.0% and 0.0%, respectively. Also, the figures for the “Whole Blood Stability % Remaining at 37° C. Human” value in data set [2] (0 min), in data set [2] (30 min) and in data set [2] (60 min) were 100.0%, 78.3% and 49.6%, respectively.
On to `COC(=O)[C@H]1Cc2c([nH]c3ccccc23)[C@H](c2ccc(NC(C)=O)cc2)N1C(=O)CCl` [Compound 80], for which the IC50 in the data set with KP4 is 0.01 to 0.1 µM. Also, the “Whole Blood Stability % Remaining at 37° C. Mouse” value in data set [1] (0 min) stood at 100.0%; in data set [1] (30 min), 72.3%; in data set [1] (60 min) it was 58.6%. Also, the “Whole Blood Stability % Remaining at 37° C. Human” value stood at 100.0% in data set [2] (0 min), 60.9% in data set [2] (30 min) and 49.6% in data set [2] (60 min).
Regarding `COC(=O)c1ccc([C@H]2c3[nH]c4ccccc4c3C[C@H](C)N2C(=O)CCl)cc1` [Compound 77], the IC50 in the data set on KP4 is less than 0.01 µM. In addition, the “Whole Blood Stability % Remaining at 37° C. Mouse” value is reported as 100.0% in data set [1] (0 min), 0.5% in data set [1] (30 min) and 0.0% in data set [1] (60 min). The “Whole Blood Stability % Remaining at 37° C. Human” value in data set [2] (0 min) is given as 100.0%; in data set [2] (30 min), 54.1%; in data set [2] (60 min), 27.5%.
For `COC(=O)[C@H]1CC2c3ccccc3NC2[C@H](c2ccc(C(=O)OC(C)(C)C)cc2)N1C(=O)C(F)(F)Cl` (stereo partly drawn) [Compound 34], in the data set with KP4, the IC50 is more than 1 µM. Moreover, the “Whole Blood Stability % Remaining at 37° C. Mouse” value in data set [1] (0 min) amounted to 100.0%; in data set [1] (30 min), 75.6%; in data set [1] (60 min) it was 80.6%. Moreover, the “Whole Blood Stability % Remaining at 37° C. Human” value in data set [2] (0 min) amounted to 100.0%; in data set [2] (30 min), 104.9%; in data set [2] (60 min) it was 113.4%.
